Source: ChEMBL document CHEMBL4507295 (2021)

Assays:
[1] = biological target: Serine/threonine-protein kinase 17B (Homo sapiens) (UniProt O94768); details: Compound concentration 1000.0 nM
[2] = biological target: Rhodopsin kinase GRK7 (Homo sapiens) (UniProt Q8WTQ7); details: Compound concentration 1000.0 nM
[3] = biological target: Serine/threonine-protein kinase LATS1 (Homo sapiens) (UniProt O95835); details: Compound concentration 1000.0 nM
[4] = biological target: Ephrin type-A receptor 8 (Homo sapiens) (UniProt P29322); details: Compound concentration 1000.0 nM
[5] = biological target: Eukaryotic translation initiation factor 2-alpha kinase 1 (Homo sapiens) (UniProt Q9BQI3); details: Compound concentration 1000.0 nM
[6] = biological target: STE20/SPS1-related proline-alanine-rich protein kinase (Homo sapiens) (UniProt Q9UEW8); details: Compound concentration 1000.0 nM
[7] = biological target: Aurora kinase C (Homo sapiens) (UniProt Q9UQB9); details: Compound concentration 1000.0 nM
Aurora kinase C (Homo sapiens), sequence (Q9UQB9 whole entry): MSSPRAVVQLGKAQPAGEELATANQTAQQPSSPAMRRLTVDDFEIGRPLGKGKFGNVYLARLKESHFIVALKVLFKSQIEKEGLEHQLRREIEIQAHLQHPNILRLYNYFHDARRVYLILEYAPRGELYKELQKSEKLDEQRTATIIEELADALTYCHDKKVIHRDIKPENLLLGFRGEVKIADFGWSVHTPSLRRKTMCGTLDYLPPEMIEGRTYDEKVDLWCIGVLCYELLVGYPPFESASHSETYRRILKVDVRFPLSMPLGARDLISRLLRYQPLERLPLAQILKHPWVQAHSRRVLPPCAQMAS

[8] = biological target: Mitogen-activated protein kinase 6 (Homo sapiens) (UniProt Q16659); details: Compound concentration 1000.0 nM
[9] = biological target: Tyrosine-protein kinase HCK (Homo sapiens) (UniProt P08631); details: Compound concentration 1000.0 nM
[10] = system: Tyrosine-protein kinase ABL1 (Homo sapiens), P00519 [F317I]; details: Compound concentration 1000.0 nM
[11] = biological target: Dual serine/threonine and tyrosine protein kinase (Homo sapiens) (UniProt Q6XUX3); details: Compound concentration 1000.0 nM
Dual serine/threonine and tyrosine protein kinase (Homo sapiens), sequence (Q6XUX3 whole entry): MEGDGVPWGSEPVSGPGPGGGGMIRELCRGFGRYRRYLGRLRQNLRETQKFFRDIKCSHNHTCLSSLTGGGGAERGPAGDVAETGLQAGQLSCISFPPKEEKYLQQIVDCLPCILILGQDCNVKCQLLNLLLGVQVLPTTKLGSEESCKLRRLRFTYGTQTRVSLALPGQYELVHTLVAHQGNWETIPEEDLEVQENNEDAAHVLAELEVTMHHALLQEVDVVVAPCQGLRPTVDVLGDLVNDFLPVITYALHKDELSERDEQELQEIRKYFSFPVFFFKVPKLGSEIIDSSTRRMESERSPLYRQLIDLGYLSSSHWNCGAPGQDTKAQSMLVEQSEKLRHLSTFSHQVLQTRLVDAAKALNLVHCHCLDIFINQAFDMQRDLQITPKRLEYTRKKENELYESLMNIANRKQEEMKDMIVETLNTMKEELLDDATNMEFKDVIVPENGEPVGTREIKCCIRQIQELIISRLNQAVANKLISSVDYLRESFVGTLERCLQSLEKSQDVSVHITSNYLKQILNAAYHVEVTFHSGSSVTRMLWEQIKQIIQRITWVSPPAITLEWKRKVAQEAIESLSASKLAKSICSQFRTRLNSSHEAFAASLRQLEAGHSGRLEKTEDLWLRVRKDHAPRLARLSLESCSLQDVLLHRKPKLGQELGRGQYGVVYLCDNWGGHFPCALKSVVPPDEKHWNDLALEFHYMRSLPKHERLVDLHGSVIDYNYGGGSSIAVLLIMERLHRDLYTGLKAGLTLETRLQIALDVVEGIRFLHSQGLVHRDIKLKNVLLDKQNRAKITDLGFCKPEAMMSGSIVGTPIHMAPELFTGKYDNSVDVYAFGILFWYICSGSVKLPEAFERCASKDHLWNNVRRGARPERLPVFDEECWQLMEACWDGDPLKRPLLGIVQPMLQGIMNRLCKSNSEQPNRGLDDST

[12] = system: Epidermal growth factor receptor (Homo sapiens), P00533 [UNDEFINED MUTATION]; details: Compound concentration 1000.0 nM
[13] = biological target: Receptor tyrosine-protein kinase erbB-4 (Homo sapiens) (UniProt Q15303); details: Compound concentration 1000.0 nM
[14] = system: Epidermal growth factor receptor (Homo sapiens), P00533 [L858R,T790M]; details: Compound concentration 1000.0 nM
[15] = biological target: Serine/threonine-protein kinase TNNI3K (Homo sapiens) (UniProt Q59H18); details: Compound concentration 1000.0 nM
[16] = biological target: Calcium-dependent protein kinase 1 (Plasmodium falciparum) (UniProt P62344); details: Compound concentration 1000.0 nM
[17] = system: ALK tyrosine kinase receptor (Homo sapiens), Q9UM73 [L1196M]; details: Compound concentration 1000.0 nM
ALK tyrosine kinase receptor (Homo sapiens), Q9UM73 [L1196M], sequence (Q9UM73 whole entry L1196M, looked up): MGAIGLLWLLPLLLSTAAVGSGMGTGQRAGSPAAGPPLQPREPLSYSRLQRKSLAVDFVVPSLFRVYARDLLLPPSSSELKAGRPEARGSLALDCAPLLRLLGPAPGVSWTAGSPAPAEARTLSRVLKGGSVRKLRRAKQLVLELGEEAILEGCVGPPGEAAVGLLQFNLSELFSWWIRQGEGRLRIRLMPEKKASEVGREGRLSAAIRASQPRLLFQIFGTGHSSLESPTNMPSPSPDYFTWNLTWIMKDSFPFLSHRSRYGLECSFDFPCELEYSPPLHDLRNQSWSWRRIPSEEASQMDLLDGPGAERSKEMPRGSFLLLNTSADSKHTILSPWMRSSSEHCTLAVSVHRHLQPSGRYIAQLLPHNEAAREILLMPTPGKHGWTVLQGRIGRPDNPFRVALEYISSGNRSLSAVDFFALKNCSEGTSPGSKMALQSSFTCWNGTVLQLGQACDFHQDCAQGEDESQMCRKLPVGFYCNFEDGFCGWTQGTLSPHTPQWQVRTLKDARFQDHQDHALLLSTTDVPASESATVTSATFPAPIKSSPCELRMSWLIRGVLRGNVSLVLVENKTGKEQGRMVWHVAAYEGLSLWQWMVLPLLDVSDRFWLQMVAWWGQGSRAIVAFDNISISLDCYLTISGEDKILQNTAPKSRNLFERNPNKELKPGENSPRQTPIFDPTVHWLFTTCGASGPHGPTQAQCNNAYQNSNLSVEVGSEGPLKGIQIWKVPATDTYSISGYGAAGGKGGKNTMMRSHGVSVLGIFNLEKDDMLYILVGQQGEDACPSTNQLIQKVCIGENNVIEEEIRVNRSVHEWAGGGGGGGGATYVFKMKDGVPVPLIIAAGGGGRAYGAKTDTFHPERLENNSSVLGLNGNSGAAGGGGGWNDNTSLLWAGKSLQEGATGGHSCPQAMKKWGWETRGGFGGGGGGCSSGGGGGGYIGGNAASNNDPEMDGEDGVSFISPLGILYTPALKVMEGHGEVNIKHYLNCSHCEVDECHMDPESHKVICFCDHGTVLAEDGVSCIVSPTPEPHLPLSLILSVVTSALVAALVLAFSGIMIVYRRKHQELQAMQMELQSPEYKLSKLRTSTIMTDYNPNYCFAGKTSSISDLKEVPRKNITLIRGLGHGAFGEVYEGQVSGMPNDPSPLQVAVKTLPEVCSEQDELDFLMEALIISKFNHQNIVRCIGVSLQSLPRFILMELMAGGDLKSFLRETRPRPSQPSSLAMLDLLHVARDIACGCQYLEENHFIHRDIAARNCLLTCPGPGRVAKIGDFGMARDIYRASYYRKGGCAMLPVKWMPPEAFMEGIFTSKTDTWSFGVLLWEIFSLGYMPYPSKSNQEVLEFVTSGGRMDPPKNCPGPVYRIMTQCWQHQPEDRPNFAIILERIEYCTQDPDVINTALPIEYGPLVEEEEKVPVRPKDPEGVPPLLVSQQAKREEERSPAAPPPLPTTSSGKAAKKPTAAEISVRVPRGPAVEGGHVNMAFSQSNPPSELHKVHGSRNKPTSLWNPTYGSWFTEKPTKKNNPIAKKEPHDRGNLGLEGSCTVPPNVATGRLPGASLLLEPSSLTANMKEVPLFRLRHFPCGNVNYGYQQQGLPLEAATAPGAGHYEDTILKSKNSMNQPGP

[18] = biological target: Serine/threonine-protein kinase DCLK2 (Homo sapiens) (UniProt Q8N568); details: Compound concentration 1000.0 nM
[19] = biological target: Protein kinase C theta type (Homo sapiens) (UniProt Q04759); details: Compound concentration 1000.0 nM
[20] = biological target: Tyrosine-protein kinase SYK (Homo sapiens) (UniProt P43405); details: Compound concentration 1000.0 nM
[21] = biological target: Histamine H3 receptor (Homo sapiens) (UniProt Q9Y5N1); details: Compound concentration 10.0 uM
[22] = biological target: Mitogen-activated protein kinase kinase kinase 19 (Homo sapiens) (UniProt Q56UN5); details: Compound concentration 1000.0 nM
[23] = biological target: Mitogen-activated protein kinase 1 (Homo sapiens) (UniProt P28482); details: Compound concentration 1000.0 nM
[24] = biological target: Tyrosine-protein kinase TXK (Homo sapiens) (UniProt P42681); details: Compound concentration 1000.0 nM
[25] = biological target: Vascular endothelial growth factor receptor 1 (Homo sapiens) (UniProt P17948); details: Compound concentration 1000.0 nM
[26] = biological target: Dual specificity protein kinase CLK3 (Homo sapiens) (UniProt P49761); details: Compound concentration 1000.0 nM
[27] = biological target: Serine/threonine-protein kinase ULK3 (Homo sapiens) (UniProt Q6PHR2); details: Compound concentration 1000.0 nM
Serine/threonine-protein kinase ULK3 (Homo sapiens), sequence (Q6PHR2 whole entry): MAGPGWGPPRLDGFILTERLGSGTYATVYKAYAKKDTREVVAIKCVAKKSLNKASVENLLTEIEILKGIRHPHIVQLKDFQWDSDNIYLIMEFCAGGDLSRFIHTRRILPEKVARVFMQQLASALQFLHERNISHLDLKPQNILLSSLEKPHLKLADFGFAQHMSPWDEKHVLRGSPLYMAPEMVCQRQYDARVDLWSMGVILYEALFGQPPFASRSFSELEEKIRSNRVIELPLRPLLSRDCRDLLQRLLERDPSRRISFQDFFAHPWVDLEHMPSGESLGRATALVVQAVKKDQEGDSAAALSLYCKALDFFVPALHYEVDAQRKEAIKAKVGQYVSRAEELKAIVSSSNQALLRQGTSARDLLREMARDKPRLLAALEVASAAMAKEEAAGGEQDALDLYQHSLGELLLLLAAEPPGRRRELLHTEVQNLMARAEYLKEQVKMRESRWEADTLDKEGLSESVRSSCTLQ

[28] = biological target: Mu-type opioid receptor (Homo sapiens) (UniProt P35372); details: Compound concentration 10.0 uM
Mu-type opioid receptor (Homo sapiens), sequence (P35372 whole entry): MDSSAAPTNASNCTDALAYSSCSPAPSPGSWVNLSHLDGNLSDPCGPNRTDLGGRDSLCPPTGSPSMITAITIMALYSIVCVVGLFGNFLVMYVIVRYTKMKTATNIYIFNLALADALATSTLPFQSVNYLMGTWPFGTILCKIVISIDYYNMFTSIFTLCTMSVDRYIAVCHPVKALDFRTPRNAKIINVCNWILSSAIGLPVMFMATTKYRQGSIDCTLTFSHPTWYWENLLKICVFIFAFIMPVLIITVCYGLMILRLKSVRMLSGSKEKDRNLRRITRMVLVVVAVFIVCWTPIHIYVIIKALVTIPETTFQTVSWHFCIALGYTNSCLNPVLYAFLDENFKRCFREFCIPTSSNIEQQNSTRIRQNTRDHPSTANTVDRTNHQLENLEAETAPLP

[29] = biological target: Cyclin-dependent kinase-like 3 (Homo sapiens) (UniProt Q8IVW4); details: Compound concentration 1000.0 nM
[30] = biological target: Testis-specific serine/threonine-protein kinase 1 (Homo sapiens) (UniProt Q9BXA7); details: Compound concentration 1000.0 nM
Testis-specific serine/threonine-protein kinase 1 (Homo sapiens), sequence (Q9BXA7 whole entry): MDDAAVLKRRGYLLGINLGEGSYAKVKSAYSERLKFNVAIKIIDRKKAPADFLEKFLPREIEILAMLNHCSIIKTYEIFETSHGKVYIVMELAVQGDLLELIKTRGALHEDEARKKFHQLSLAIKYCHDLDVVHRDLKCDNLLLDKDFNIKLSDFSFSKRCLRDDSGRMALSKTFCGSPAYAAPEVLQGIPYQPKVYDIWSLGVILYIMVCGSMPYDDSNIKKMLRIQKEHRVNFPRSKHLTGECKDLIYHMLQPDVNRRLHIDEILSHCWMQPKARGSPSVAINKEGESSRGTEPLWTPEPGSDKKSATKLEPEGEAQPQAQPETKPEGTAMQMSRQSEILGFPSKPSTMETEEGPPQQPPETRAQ

[31] = biological target: Platelet-derived growth factor receptor alpha (Homo sapiens) (UniProt P16234); details: Compound concentration 1000.0 nM
[32] = biological target: Serine/threonine-protein kinase D1 (Homo sapiens) (UniProt Q15139); details: Compound concentration 1000.0 nM
[33] = biological target: Fibroblast growth factor receptor 4 (Homo sapiens) (UniProt P22455); details: Compound concentration 1000.0 nM
[34] = biological target: Interleukin-1 receptor-associated kinase 3 (Homo sapiens) (UniProt Q9Y616); details: Compound concentration 1000.0 nM
[35] = biological target: Membrane-associated tyrosine- and threonine-specific cdc2-inhibitory kinase (Homo sapiens) (UniProt Q99640); details: Compound concentration 1000.0 nM
Membrane-associated tyrosine- and threonine-specific cdc2-inhibitory kinase (Homo sapiens), sequence (Q99640 whole entry): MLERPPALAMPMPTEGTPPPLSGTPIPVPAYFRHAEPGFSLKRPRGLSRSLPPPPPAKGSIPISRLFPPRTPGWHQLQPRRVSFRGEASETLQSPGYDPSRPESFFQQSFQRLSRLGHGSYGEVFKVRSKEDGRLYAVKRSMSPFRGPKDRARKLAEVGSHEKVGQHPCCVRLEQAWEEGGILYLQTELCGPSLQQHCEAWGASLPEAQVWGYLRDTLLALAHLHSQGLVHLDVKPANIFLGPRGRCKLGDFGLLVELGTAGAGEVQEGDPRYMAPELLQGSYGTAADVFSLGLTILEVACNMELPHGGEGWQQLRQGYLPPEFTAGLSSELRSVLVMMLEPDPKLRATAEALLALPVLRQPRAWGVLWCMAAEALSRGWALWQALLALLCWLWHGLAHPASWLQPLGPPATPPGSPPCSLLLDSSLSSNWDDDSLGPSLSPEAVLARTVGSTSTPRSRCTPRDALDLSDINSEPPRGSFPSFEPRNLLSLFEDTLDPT

[36] = biological target: Tyrosine-protein kinase Yes (Homo sapiens) (UniProt P07947); details: Compound concentration 1000.0 nM
[37] = biological target: Myosin-IIIa (Homo sapiens) (UniProt Q8NEV4); details: Compound concentration 1000.0 nM
[38] = biological target: Tyrosine-protein kinase JAK2 (Homo sapiens) (UniProt O60674); details: Compound concentration 1000.0 nM
[39] = biological target: Serine/threonine-protein kinase MAK (Homo sapiens) (UniProt P20794); details: Compound concentration 1000.0 nM
[40] = biological target: Cyclin-dependent kinase 4 (Homo sapiens) (UniProt P11802); details: Compound concentration 1000.0 nM
Cyclin-dependent kinase 4 (Homo sapiens), sequence (P11802 whole entry): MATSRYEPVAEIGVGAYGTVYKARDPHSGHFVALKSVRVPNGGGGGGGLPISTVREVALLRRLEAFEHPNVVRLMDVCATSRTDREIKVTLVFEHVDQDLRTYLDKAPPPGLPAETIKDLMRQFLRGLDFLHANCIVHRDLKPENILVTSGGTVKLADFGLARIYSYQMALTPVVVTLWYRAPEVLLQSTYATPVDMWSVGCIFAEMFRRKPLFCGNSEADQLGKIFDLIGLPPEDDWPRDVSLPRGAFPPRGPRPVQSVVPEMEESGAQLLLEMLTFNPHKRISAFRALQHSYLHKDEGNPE

[41] = biological target: Ribosomal protein S6 kinase alpha-5 (Homo sapiens) (UniProt O75582); details: Compound concentration 1000.0 nM
[42] = biological target: Tyrosine-protein kinase JAK3 (Homo sapiens) (UniProt P52333); details: Compound concentration 1000.0 nM
[43] = system: Mast/stem cell growth factor receptor Kit (Homo sapiens), P10721 [D816V]; details: Compound concentration 1000.0 nM
[44] = biological target: Mitogen-activated protein kinase kinase kinase kinase 4 (Homo sapiens) (UniProt O95819); details: Compound concentration 1000.0 nM
[45] = biological target: Phosphatidylinositol 3-kinase catalytic subunit type 3 (Homo sapiens) (UniProt Q8NEB9); details: Compound concentration 1000.0 nM

N#CC1(c2ccccn2)CCN(Cc2cc(C(=O)O)c(=O)n3ccccc23)CC1 [MSD-M1PAM]
inactive: residual activity [1] 100% | residual activity [2] 77% | residual activity [3] 100% | residual activity [4] 100% | residual activity [5] 86% | residual activity [6] 56% | residual activity [7] 94% | residual activity [8] 100% | residual activity [9] 100% | residual activity [10] 65% | residual activity [11] 75% | residual activity [12] 96% | residual activity [13] 72% | residual activity [14] 71% | residual activity [15] 100% | residual activity [16] 88% | residual activity [17] 100% | residual activity [18] 100% | residual activity [19] 96% | residual activity [20] 92% | inhibition [21] 4.08% | residual activity [22] 77% | residual activity [23] 100% | residual activity [24] 100% | residual activity [25] 92% | residual activity [26] 100% | residual activity [27] 89% | inhibition [28] 18.5% | residual activity [29] 89% | residual activity [30] 74% | residual activity [31] 90% | residual activity [32] 87% | residual activity [33] 100% | residual activity [34] 100% | residual activity [35] 100% | residual activity [36] 94% | residual activity [37] 100% | residual activity [38] 96% | residual activity [39] 97% | residual activity [40] 82% | residual activity [41] 100% | residual activity [42] 95% | residual activity [43] 100% | residual activity [44] 87% | residual activity [45] 70%

N#CC1(c2ccccn2)CCN(Cc2cc(C(=O)N3CCCC3)c(=O)n3ccccc23)CC1
inactive: residual activity [1] 93% | residual activity [2] 87% | residual activity [3] 100% | residual activity [4] 100% | residual activity [5] 83% | residual activity [6] 75% | residual activity [7] 88% | residual activity [8] 79% | residual activity [9] 100% | residual activity [10] 87% | residual activity [11] 80% | residual activity [12] 81% | residual activity [13] 85% | residual activity [14] 100% | residual activity [15] 89% | residual activity [16] 84% | residual activity [17] 100% | residual activity [18] 100% | residual activity [19] 100% | residual activity [20] 92% | inhibition [21] 11.2% | residual activity [22] 100% | residual activity [23] 98% | residual activity [24] 91% | residual activity [25] 100% | residual activity [26] 99% | residual activity [27] 96% | inhibition [28] 35% | residual activity [29] 78% | residual activity [30] 98% | residual activity [31] 97% | residual activity [32] 95% | residual activity [33] 90% | residual activity [34] 100% | residual activity [35] 79% | residual activity [36] 84% | residual activity [37] 80% | residual activity [38] 85% | residual activity [39] 93% | residual activity [40] 98% | residual activity [41] 88% | residual activity [42] 100% | residual activity [43] 100% | residual activity [44] 87% | residual activity [45] 89%
